Values joined by “and” are separate entries in the source; they are usually repeats but may differ in a detail not shown here. Identical values can stand only once. Values belong to the molecule of their own block, whether it stands above or below them.
Assays:
[1] = target: human recombinant serotonin 5-HT2A receptor (Homo sapiens, UniProt P28223); test: 5-HT2A agonist/antagonist functional assay (cytosolic Ca2+ fluorescence, HEK-293 cells); assay type: cell-based
From the text: To determine for agonist or antagonist activity of compounds of the invention in functional assays, human recombinant serotonin 5-HT2A receptor expressed in human embryonic kidney (HEK-293) cells (Jerman J C, Brough S J, Gager T, Wood M, Coldwell M C, Smart D and Middlemiss D N, Eur J Pharmacol, 414: 23-30, 2001) or human recombinant serotonin 5-HT7 receptor expressed in CHO cells (Adham, et al. J. Pharmacol. Exp. Ther. 287:508-514, 1998) was used. Cells were suspended in DMEM buffer, and distributed in microplates. For the 5-HT2A assay, a cytoplasmic calcium fluorescent indicator which varies proportionally to the free cytosolic Ca^2+ ion concentration was mixed with probenicid in HBSS buffer complemented with 20 mM Hepes (pH 7.4), added into each well and equilibrated with the cells for 30 min. at 37° C. followed by 30 min. at 22° C. For the 5-HT7 assay, the reaction product was cAMP, detected by HTRF.
To measure 5-HT2A agonist effects, compounds of the invention, reference agonist or HBSS buffer (basal control) was added to the cells and changes in fluorescence intensity were measured using a microplate reader.
The standard reference antagonist was ketanserin (5-HT2A) or mesulergine (5-HT7), which was tested in each experiment at several concentrations to generate a concentration-response curve from which its IC50 value was calculated. […]

C57Bl/6J mice = test: Elevated plus maze (EPM) test; assay type: in vivo, mouse; conditions: 0.03, 0.1, and 1 mg/kg, oral
From the text: This study aimed to test the anxiolytic properties of Compound No. 90 using the elevated plus maze (EPM) test in C57Bl/6J mice.
Male C57Bl/6J mice from Jackson Laboratories (Bar Harbor, Me.) were used for the […]. Mice were received at 6-weeks of age. Upon receipt, mice were assigned unique identification numbers (tail marked) and were group housed with 4 mice/cage in OPTI mouse ventilated cages. All animals remained housed in groups of four during the remainder of the study. All mice were acclimated to the colony room for approximately 2 week prior to testing and were subsequently tested at an average age of 8 weeks of age. During the period of acclimation, mice and rats were examined on a regular basis, handled, and weighed to assure adequate health and suitability. Animals were maintained on a 12 h/12 h light/dark cycle. The room temperature was maintained between 20 and 23° C. with a relative humidity maintained between 30% and 70%. Chow and water were provided ad libitum for the duration of the study. In each test, animals were randomly assigned across treatment groups. […]
The elevated plus maze test assessed anxiety. […] The time spent, distance traveled and entries in each arm were automatically recorded by the computer. […]
Data were analyzed using analysis of variance (ANOVA) followed by Fisher's LSD post hoc analysis when appropriate. […]

histamine receptor H1 = histamine receptor H1 (Homo sapiens, UniProt P35367); test: Inhibition of binding of a ligand (Pyrilamine) to histamine receptor H1; conditions: as compared to the unsubstituted vinyl counterpart (106 vs compound 415; 85 vs compound 95)
Procedure: The number and extent of undesirable side effects increases with increasing affinity for the H1 receptor Thus, in one aspect, compounds of the formulae herein display reduced, low or no affinity to histamine receptor H1. […] Inhibition of binding of a ligand to H1 for all variations detailed herein is determined by a suitable assay known in the art such as the assay described herein. […] In one variation, compounds of the formulae herein inhibit binding of a ligand to H1 by between about 50% to about 80%. […] In one variation, compounds of the formulae herein inhibit binding of Pyrilamine to H1 as determined in the assay described herein. In a further variation, percent inhibition of binding to H1 is measured by assays detailed herein.
The binding properties of compounds disclosed herein to a panel of aminergic G protein-coupled receptors including adrenergic receptors, dopamine receptors, serotonin receptors, histamine receptors and an imidazoline receptor may be determined. Binding properties may be assessed by methods known in the art, such as competitive binding assays. In one variation, compounds are assessed by the binding assays detailed herein. […]
In one aspect, DDT compounds display low affinity to histamine receptor H1. […] Inhibition of binding of a ligand to H1 for all variations detailed herein is determined by a suitable assay known in the art such as the assay described herein. […]

human recombinant serotonin 5-HT2A receptor, sequence (P28223 whole entry): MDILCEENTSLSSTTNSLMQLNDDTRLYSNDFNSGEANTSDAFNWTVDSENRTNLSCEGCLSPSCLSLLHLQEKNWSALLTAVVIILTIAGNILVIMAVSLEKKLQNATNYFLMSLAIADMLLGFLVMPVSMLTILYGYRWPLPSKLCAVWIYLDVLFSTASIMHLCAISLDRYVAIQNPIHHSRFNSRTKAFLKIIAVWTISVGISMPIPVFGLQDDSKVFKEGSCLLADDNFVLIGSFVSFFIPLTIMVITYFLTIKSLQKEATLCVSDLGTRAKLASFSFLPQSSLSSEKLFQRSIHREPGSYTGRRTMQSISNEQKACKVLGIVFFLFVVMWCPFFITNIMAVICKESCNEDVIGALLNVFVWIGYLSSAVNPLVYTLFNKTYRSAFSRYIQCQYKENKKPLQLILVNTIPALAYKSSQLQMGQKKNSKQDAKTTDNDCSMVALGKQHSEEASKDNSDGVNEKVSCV
histamine receptor H1, sequence (P35367 whole entry): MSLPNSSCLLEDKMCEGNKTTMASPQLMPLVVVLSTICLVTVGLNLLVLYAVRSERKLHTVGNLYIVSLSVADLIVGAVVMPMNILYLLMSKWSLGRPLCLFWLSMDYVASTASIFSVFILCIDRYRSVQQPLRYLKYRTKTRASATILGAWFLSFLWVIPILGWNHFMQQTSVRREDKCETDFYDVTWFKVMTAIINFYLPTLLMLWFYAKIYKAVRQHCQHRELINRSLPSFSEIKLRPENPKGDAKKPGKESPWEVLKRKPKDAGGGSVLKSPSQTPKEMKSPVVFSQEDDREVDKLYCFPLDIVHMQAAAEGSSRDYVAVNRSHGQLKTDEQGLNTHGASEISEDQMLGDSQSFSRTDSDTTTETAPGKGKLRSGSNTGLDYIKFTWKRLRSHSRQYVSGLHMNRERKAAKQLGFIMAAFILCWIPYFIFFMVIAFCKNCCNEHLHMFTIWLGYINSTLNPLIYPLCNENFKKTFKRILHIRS

EC50 [1]: 3100 nM
IC50 ([1]; vs 3 nM 5-HT): 970 nM and > 1000 nM
SMILES: C/C(=C\n1c2c(c3cc(Cl)ccc31)CN(C)CC2)c1ccc(F)cc1 [Compound 83, (E)-8-chloro-5-(2-(4-fluorophenyl)prop-1-enyl)-2,3,4,5-tetrahydro-2-methyl-1H-pyrido[4,3-b]indole]

SMILES: C/C(=C\n1c2c(c3cc(Cl)ccc31)CN(C)CC2)c1ccncc1 [Compound 90, (E)-8-chloro-2,3,4,5-tetrahydro-2-methyl-5-(2-(pyridin-4-yl)prop-1-enyl)-1H-pyrido[4,3-b]indole]
anxiolytic-like effect in the EPM test compared to vehicle (C57Bl/6J mice): did not exert any anxiolytic-like effect

SMILES: C/C(=C\n1c2c(c3cc(Cl)ccc31)CN(C)CC2)c1ccccc1 [compound 106, (E)-8-chloro-2,3,4,5-tetrahydro-2-methyl-5-(2-phenylprop-1-enyl)-1H-pyrido[4,3-b]indole]
binding affinity to H1 (histamine receptor H1): lower binding affinity to H1
